From patent US4217271A, “Basic azo dyestuffs containing a n-picolinium alkylene amino phenyl group” (Imperial Chemical Industries Limited, priority 1977, dated 1980)

Assay: Solubility in water (grams/100 ml) at 30, 60 and 90° C.
Assay type: physicochemical
Conditions: for Solubility in water: chloride anion

Solubility in water (30° C.): 2.5 grams/100 ml
Solubility in water (60° C.): 62 grams/100 ml
Solubility in water (90° C.): > 100 grams/100 ml
aqueous solubility compared with Basic Red 18:1 (both dyestuffs having a chloride anion): superior aqueous solubility
SMILES: CCN(CC[n+]1ccc(C)cc1)c1ccc(N=Nc2ccc([N+](=O)[O-])cc2Cl)cc1 [Example 1, 4-nitro-2-chloroaniline N-2-(N'-ethylanilino)-ethyl-4-methylpyridinium chloride]
